Reference: ChEMBL document CHEMBL1201862, “PubChem BioAssay data set” (2004)
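Interpolation was linear, between the two tested concentrations surrounding the appropriate level; five concentrations were tested over 48 hours in 96-well plates. At the GI50, growth is halved.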 Active and inactive are the calls of the source. No stated cut-off is given here; in the data, active = GI50 up to about 1.1 µM and inactive = higher.

How the values were obtained:
Assay in all cases: DTP human tumour cell line panel, 48 h
HOP-62 = tested on: HOP-62
CAKI-1 = tested on: CAKI-1
NCI/ADR-RES = tested on: NCI/ADR-RES
MDA-MB-231 = tested on: MDA-MB-231
UACC-257 = tested on: UACC-257
RPMI-8226 = tested on: RPMI-8226
SK-MEL-2 = tested on: SK-MEL-2
SNB-75 = tested on: SNB-75
HT-29 = tested on: HT-29
MOLT-4 = tested on: MOLT-4
786-0 = tested on: 786-0
SK-MEL-28 = tested on: SK-MEL-28
T47D = tested on: T47D
MDA-N = tested on: MDA-N
RXF 393 = tested on: RXF 393
EKVX = tested on: EKVX
OVCAR-8 = tested on: OVCAR-8
LOX IMVI = tested on: LOX IMVI
CCRF-CEM = tested on: CCRF-CEM
UO-31 = tested on: UO-31

| SMILES | GI50 (HOP-62) | GI50 (CAKI-1) | GI50 (NCI/ADR-RES) | GI50 (MDA-MB-231) | GI50 (UACC-257) | GI50 (RPMI-8226) | GI50 (SK-MEL-2) | GI50 (SNB-75) | GI50 (HT-29) | GI50 (MOLT-4) | GI50 (786-0) | GI50 (SK-MEL-28) | GI50 (T47D) | GI50 (MDA-N) | GI50 (RXF 393) | GI50 (EKVX) | GI50 (OVCAR-8) | GI50 (LOX IMVI) | GI50 (CCRF-CEM) | GI50 (UO-31) |
| --- | --- | --- | --- | --- | --- | --- | --- | --- | --- | --- | --- | --- | --- | --- | --- | --- | --- | --- | --- | --- |
| CC(Nc1ccc(Cl)c(Cl)c1)c1ccncc1 (stereo not given) | 20.9 µM (inactive) | 31 µM (inactive) | 28.1 µM (inactive) | 16 µM (inactive) | 26.2 µM (inactive) | 5.75 µM (inactive) | 22.9 µM (inactive) | 23 µM (inactive) | 23.7 µM (inactive) | 19.5 µM (inactive) | 29 µM (inactive) | 35.7 µM (inactive) | 51.6 µM (inactive) | 24.6 µM (inactive) | 17.6 µM (inactive) | 39.9 µM (inactive) | 21.8 µM (inactive) | 18.4 µM (inactive) | 20.7 µM (inactive) | 11.6 µM (inactive) |
| C/C(=N/NC(N)=S)c1ccc[nH]1 | > 100 µM (inactive) | > 100 µM (inactive) | > 100 µM (inactive) | > 100 µM (inactive) | > 100 µM (inactive) | > 100 µM (inactive) | > 100 µM (inactive) | > 100 µM (inactive) | > 100 µM (inactive) | > 100 µM (inactive) | > 100 µM (inactive) | > 100 µM (inactive) | 84.3 µM (inactive) | > 100 µM (inactive) | > 100 µM (inactive) | > 100 µM (inactive) | > 100 µM (inactive) | > 100 µM (inactive) | > 100 µM (inactive) | > 100 µM (inactive) |
| NCCNC(=S)S | > 100 µM (inactive) | > 100 µM (inactive) | > 100 µM (inactive) | > 100 µM (inactive) | > 100 µM (inactive) | 24.9 µM (inactive) | > 100 µM (inactive) | > 100 µM (inactive) | 85.9 µM (inactive) | 34.9 µM (inactive) | 33.8 µM (inactive) | > 100 µM (inactive) | > 100 µM (inactive) | > 100 µM (inactive) | > 100 µM (inactive) | > 100 µM (inactive) | 57.5 µM (inactive) | 51.8 µM (inactive) | 22.4 µM (inactive) | > 100 µM (inactive) |
| Cc1ccccc1NC(=S)N/N=C(/c1ccccc1)c1ccccn1 | 0.0331 µM (active) | 0.0743 µM (active) | < 0.0187 µM (active) | < 0.01 µM (active) | < 0.01 µM (active) | < 0.01 µM (active) | 3.36 µM (inactive) | 0.933 µM (active) | < 0.0182 µM (active) | < 0.0295 µM (active) | < 0.0214 µM (active) | 2.3 µM (inactive) | < 0.01 µM (active) | 0.7 µM (active) | 0.589 µM (active) | < 0.0381 µM (active) | 0.0279 µM (active) | < 0.01 µM (active) | < 0.01 µM (active) | 0.0266 µM (active) |
| O=C(/C=C/c1ccc(O)cc1)c1cc(O)cc(O)c1 | 15.6 µM (inactive) | 14.4 µM (inactive) | 18.9 µM (inactive) | 15.5 µM (inactive) | 16.3 µM (inactive) | 2.16 µM (inactive) | 18.1 µM (inactive) | 17.6 µM (inactive) | 17.5 µM (inactive) | 16.3 µM (inactive) | 16.6 µM (inactive) | 21.2 µM (inactive) | 14.6 µM (inactive) | 11.9 µM (inactive) | 15.8 µM (inactive) | 17.3 µM (inactive) | 13.4 µM (inactive) | 4.32 µM (inactive) | 3.36 µM (inactive) | 10 µM (inactive) |
| CCCCC[C@H](O)[C@H](C)C=C1SCCCS1 | > 100 µM (inactive) | > 100 µM (inactive) | > 100 µM (inactive) | > 100 µM (inactive) | > 100 µM (inactive) | > 100 µM (inactive) | > 100 µM (inactive) | > 100 µM (inactive) | > 100 µM (inactive) | > 100 µM (inactive) | > 100 µM (inactive) | > 100 µM (inactive) | 43.2 µM (inactive) | > 100 µM (inactive) | > 100 µM (inactive) | > 100 µM (inactive) | > 100 µM (inactive) | > 100 µM (inactive) | > 100 µM (inactive) | > 100 µM (inactive) |
| c1ccc2c(c1)cc1c3[nH]c4ccccc4c3ccn21 | > 10 µM (inactive) | > 10 µM (inactive) | > 10 µM (inactive) | > 10 µM (inactive) | > 10 µM (inactive) | 4.59 µM (inactive) | > 10 µM (inactive) | > 10 µM (inactive) | > 10 µM (inactive) | > 10 µM (inactive) | > 10 µM (inactive) | > 10 µM (inactive) | > 10 µM (inactive) | > 10 µM (inactive) | > 10 µM (inactive) | > 10 µM (inactive) | > 10 µM (inactive) | > 10 µM (inactive) | 8.32 µM (inactive) | > 10 µM (inactive) |
